# Data reported in patent US7029696B2, “Delivery and activation through liposome incorporation of diaminocyclohexane platinum(II) complexes” (priority 1996, dated 2006).
# “Also recorded” adds a separate entry of the source.
# Key:
# [1] = Intraliposomal stability of Pt-complexes by HPLC; assay type: physicochemical; conditions: for intraliposomal stability (in words): DMPC:DMPG liposomes, saline or PBS; for percentage of intact Pt-complex: in liposomes, 6 h after liposome preparation; for NDDP stability (%): liposomal NDDP, lipids as dry powder
# Experimental: Stability of the different Pt-complexes incorporated in liposomes was determined as described previously by comparing the HPLC profiles as a function of time. In brief, aliquoted samples of liposome suspension were diluted (7×) with methanol at 0, 2, 6, and 24 h after liposome preparation, and each sample was then monitored by HPLC using chromega-8 bond column (4.6 mm×25 cm, 8 μm: ES Industries, NJ) and 10% water-methanol as eluant. The flow rate was 1 ml/min, and the complexes were detected by UV at 224 nm wavelength.
# [2] = test system: intraperitoneal L1210 mouse leukemia; experiment: In vivo antitumor activity of liposomal Pt-complexes
# Experimental: In vivo. The in vivo antitumor activity of liposomal Pt-complexes was assessed against intraperitoneal L1210 mouse leukemia. […] The results were expressed as the median survival of treated animals divided by the median survival of control animals ×100 (% T/C).
# [3] = Tracking of liposomal NDDP degradation by 195Pt NMR and HPLC; assay type: physicochemical
# Experimental: To characterize the active intermediate(s) in the reaction cascade of L-NDDP reconstituted in saline (0.9% NaCl), tracking experiments using ^195Pt NMR spectra in combination with ^31P NMR were performed. Samples 1–3 were prepared using the lipids DMPC and DMPG purchased in chloroform solution, while samples 4–8 were prepared using lipids in dry powder. In samples 1–3, the chloroform was initially evaporated in a rotavapor. The lipid film was dissolved in t-butanol containing the NDDP in solution. An aliquot of this solution was kept at 40° C. for 6 h and then lyophilized and extracted with methanol (sample 3). The remaining was lyophilized immediately, thus resulting in a preliposomal powder, which was reconstituted with saline to produce the liposome suspension. The liposome suspension was kept at room temperature for 6 hours. The Pt compounds and lipids were then extracted with chloroform (sample 1) or the sample was lyophilized to eliminate the water and the powder dissolved in methanol (sample 2) (see FIG. 6). Samples 4, 5, and 6 were prepared by complete evaporation of solvents after keeping the samples at 40° C. for 6 h, and redissolving them in methanol. Samples 7 and 8 were prepared by lyophilization of water for 1–2 d and redissolution in methanol. All samples were prechecked by HPLC before tracking with NMR. Chemical shifts of the products are expressed in parts-per-million relative to Na2PtCl6 in ^195Pt and DMPC in ^31P NMR.
# [4] = Solubility of DACH-Pt-Cl2; assay type: physicochemical
# [5] = Liposome entrapment (entrapment efficiency, free drug crystals by optic microscopy); assay type: physicochemical; conditions: generated within the liposome membranes from NDDP
# Excerpt: NDDP and its two isomers, B10 and L10 were formulated in liposomes composed of combinations of various lipids including DMPC, DMPG, DOPC, DOPG, PA, PE, and PS. The liposomes were formed by reconstituting preliposomal powders containing the Pt-complex and the lipids with unbuffered 0.9% NaCl aqueous solution (saline) or phosphate-buffered saline (PBS). […] The median size of the multilamellar vesicles was 1–2 μm in all preparations. The median size of the small-size liposomes prepared by ultrasonication of multilamellar vesicles was 50–100 nm.
# [6] = liposomal, DMPC:DMPG 7:3, lipids in chloroform, reconstituted in PBS, 25 mg/kg i.p. day 1
# [7] = liposomal, DMPC:DMPG 7:3, lipids in chloroform, reconstituted in PBS, 50 mg/kg i.p. day 1
# [8] = liposomal, DMPC:DMPG 7:3, lipids in chloroform, reconstituted in PBS, 100 mg/kg i.p. day 1
# [9] = liposomal, DMPC:DMPG 7:3, lipids in chloroform, reconstituted in PBS, 150 mg/kg i.p. day 1
# [10] = liposomal, DMPC:DMPG 7:3, lipids in chloroform, reconstituted in saline, 25 mg/kg i.p. day 1
# [11] = liposomal, DMPC:DMPG 7:3, lipids in chloroform, reconstituted in saline, 50 mg/kg i.p. day 1
# [12] = liposomal, DMPC:DMPG 7:3, lipids in chloroform, reconstituted in saline, 100 mg/kg i.p. day 1
# [13] = liposomal, DMPC:DMPG 7:3, lipids in chloroform, reconstituted in saline, 150 mg/kg i.p. day 1
# [14] = liposomal, lipids in chloroform, reconstituted in PBS
# [15] = liposomal, lipids in chloroform, reconstituted in saline
compound,measurement,setting,value
CCCCCCC(C)(C)C(=O)[O][Pt][O]C(=O)C(C)(C)CCCCCC.N[C@@H]1CCCC[C@H]1N [B10],intraliposomal stability (in words),[1],intermediate stability
same,percentage of intact Pt-complex,[1]; reconstituted in PBS,95.9%
same,percentage of intact Pt-complex,[1]; reconstituted in saline,85.0%
same,% T/C,[2]; [6],114%
same,% T/C,[2]; [7],114%
same,% T/C,[2]; [8],142%
same,% T/C,[2]; [9],163%
same,% T/C,[2]; [10],114%
same,% T/C,[2]; [11],128%
same,% T/C,[2]; [12],228%
same,% T/C,[2]; [13],163%
same,antitumor activity (in words),[2]; [14],no significant antitumor activity
same,optimal dose,[2]; [15],100 mg
"N.N.[Cl][Pt][Cl] [Cisplatin, cis-dichlorodiamine-platinum(II), reference compound]",% T/C,"[2]; Table 2 comparator, 10 mg/kg i.p. day 1, printed in the Saline column",142%
same,% T/C,"[2]; Table 3 comparator, 10 mg/kg, printed in the 6 h column",150%
CCCCCCCCCC(=O)[O][Pt][O]C(=O)CCCCCCCCC.N[C@@H]1CCCC[C@H]1N [L10],intraliposomal stability (in words),[1],highly stable
same,percentage of intact Pt-complex,[1]; reconstituted in PBS,100%
same,percentage of intact Pt-complex,[1]; reconstituted in saline,93.1%
same,% T/C,[2]; [6],114%
same,% T/C,[2]; [7],100%
same,% T/C,[2]; [8],100%
same,% T/C,[2]; [9],100%
same,% T/C,[2]; [10],100%
same,% T/C,[2]; [11],157%
same,% T/C,[2]; [12],178%
same,% T/C,[2]; [13],123%
same,antitumor activity (in words),[2]; [14],no significant antitumor activity
same,optimal dose,[2]; [15],100 mg
"cis-bis-neodecanoato-trans-R,R-1,2-diaminocyclohexane platinum (II) [NDDP]",original NDDP remaining,"[1]; 24 h, DMPC:DMPG 7:3, NDDP:total lipid ratio 1:15 or 1:30",25%
same,initial NDDP present,"[1]; 24 hours, DMPC:DMPG 7:3, NDDP:total lipid ratio 1:5 or 1:10",85%
same,intraliposomal stability (in words),[1],rather unstable
same,percentage of intact Pt-complex,[1]; reconstituted in PBS,82.1%
same,percentage of intact Pt-complex,[1]; reconstituted in saline,43.7%
same,NDDP stability (%),"[1]; saline pH 3.0, 10 min after reconstitution",43%
same,NDDP stability (%),"[1]; saline pH 3.0, 2 h after reconstitution",15%
same,NDDP stability (%),"[1]; saline pH 3.0, 6 h after reconstitution",7%
same,NDDP stability (%),"[1]; saline pH 5.0, 10 min after reconstitution",80%
same,NDDP stability (%),"[1]; saline pH 5.0, 1 h after reconstitution",72%
same,NDDP stability (%),"[1]; saline pH 5.0, 2 h after reconstitution",67%
same,NDDP stability (%),"[1]; saline pH 5.0, 6 h after reconstitution",38%
same,NDDP stability (%),"[1]; saline pH 7.0, 10 min after reconstitution",100%
same,NDDP stability (%),"[1]; saline pH 7.0, 2 h after reconstitution",95%
same,NDDP stability (%),"[1]; saline pH 7.0, 6 h after reconstitution",92%
same,NDDP transformed into the active Pt-species,"[1]; saline pH 5.0, calculated amount of activated species (35 mg/kg of 50 mg/kg)",about 70%
same,NDDP transformed into the active Pt-species,"[1]; saline pH 7.0, calculated amount of activated species (10 mg/kg of 100 mg/kg)",10%
same,effect of liposome size on intraliposomal stability,"[1]; ultrasonication of multilamellar vesicles, regardless of lipid composition",did not affect the intraliposomal stability
same,% T/C,[2]; [6],114%
same,% T/C,[2]; [7],171%
same,% T/C,[2]; [8],200%
same,% T/C,[2]; [9],150%
same,% T/C,[2]; [10],157%
same,% T/C,[2]; [11],211%
same,% T/C,[2]; [12],Toxic
same,% T/C,[2]; [13],Toxic
same,optimal dose,"[2]; liposomal, dry lipids, reconstituted with saline of pH 3.0",25 mg/kg
same,optimal dose,"[2]; liposomal, dry lipids, reconstituted with saline of pH 5.0",50 mg/kg
same,optimal dose,"[2]; liposomal, dry lipids, reconstituted with saline of pH 7.0",100 mg/kg
same,% T/C,"[2]; liposomal, dry lipids, saline pH 3.0, 12.5 mg/kg, administered 6 h after reconstitution",157%
same,% T/C at the optimal dose,"[2]; liposomal, dry lipids, saline pH 3.0, 25 mg/kg",214%
same,% T/C,"[2]; liposomal, dry lipids, saline pH 3.0, 25 mg/kg, administered 10 min after reconstitution",150%
same,% T/C,"[2]; liposomal, dry lipids, saline pH 3.0, 25 mg/kg, administered 2 h after reconstitution",186%
same,% T/C,"[2]; liposomal, dry lipids, saline pH 3.0, 25 mg/kg, administered 6 h after reconstitution",240%
same,% T/C,"[2]; liposomal, dry lipids, saline pH 3.0, 50 mg/kg, administered 6 h after reconstitution",Toxic
same,% T/C,"[2]; liposomal, dry lipids, saline pH 5.0, 12.5 mg/kg, administered 6 h after reconstitution",186%
same,% T/C,"[2]; liposomal, dry lipids, saline pH 5.0, 25 mg/kg, administered 6 h after reconstitution",200%
same,% T/C at the optimal dose,"[2]; liposomal, dry lipids, saline pH 5.0, 50 mg/kg",271%
same,% T/C,"[2]; liposomal, dry lipids, saline pH 5.0, 50 mg/kg, administered 10 min after reconstitution",133%
same,% T/C,"[2]; liposomal, dry lipids, saline pH 5.0, 50 mg/kg, administered 2 h after reconstitution",216%
same,% T/C,"[2]; liposomal, dry lipids, saline pH 5.0, 50 mg/kg, administered 6 h after reconstitution",270%
same,% T/C,"[2]; liposomal, dry lipids, saline pH 5.0, 100 mg/kg, administered 6 h after reconstitution",Toxic
same,% T/C,"[2]; liposomal, dry lipids, saline pH 7.0, 25 mg/kg, administered 6 h after reconstitution",186%
same,% T/C,"[2]; liposomal, dry lipids, saline pH 7.0, 50 mg/kg, administered 6 h after reconstitution",200%
same,% T/C at the optimal dose,"[2]; liposomal, dry lipids, saline pH 7.0, 100 mg/kg",271%
same,% T/C,"[2]; liposomal, dry lipids, saline pH 7.0, 100 mg/kg, administered 10 min after reconstitution",163%
same,% T/C,"[2]; liposomal, dry lipids, saline pH 7.0, 100 mg/kg, administered 2 h after reconstitution",216%
same,% T/C,"[2]; liposomal, dry lipids, saline pH 7.0, 100 mg/kg, administered 6 h after reconstitution",257%
same,optimal dose,[2]; [14],100 mg/kg
same,optimal dose,[2]; [15],50 mg/kg
same,stability in the absence of DMPG,[3]; liposomes composed of only DMPC,completely preserved stability
same,degradation of NDDP,"[3]; sample 7: dry-powder lipids, saline pH 6.5–7.0, 6 h at room temperature",< 5%
same,degradation of NDDP,"[3]; sample 8: dry-powder lipids, acidic saline pH 3.0–4.0, in 10 min, yielding DACH-Pt—Cl2",60–95%
"dichloro(1,2-diaminocyclohexane) platinum(II) [DACH-Pt—Cl2]",solubility in dimethylformamide,[4]; dimethylformamide (DMF),good solubility
same,solubility in most organic solvents,[4]; most organic solvents,insoluble
same,solubility in water,[4]; water,very low solubility; also recorded: lack of solubility
same,time the drug remains liposome-bound without leaking out and crystallizing,[5],at least 24 h
